Laboratory results from patent publication US20210122730A1, “GLUCOCORTICOID RECEPTOR MODULATORS” (ORIC Pharmaceuticals, Inc., priority 2017, published 2021).

Experiments:
CYP2C8 = biological target: T1, CYP2C8 (Homo sapiens, UniProt P10632); assay: CYP Inhibition Assay (CYP2C8, human liver microsomes, paclitaxel substrate); assay type: in vitro ADME; conditions: pH 7.4; pooled human liver microsomes 0.1 mg/mL, probe substrate paclitaxel
T1 construct: Pooled human microsomes were obtained from Sekisui XenoTech, KS; tissue Sekisui XenoTech, KS; host or cells: pooled human liver microsomes
T1 sequence (P10632 1-490): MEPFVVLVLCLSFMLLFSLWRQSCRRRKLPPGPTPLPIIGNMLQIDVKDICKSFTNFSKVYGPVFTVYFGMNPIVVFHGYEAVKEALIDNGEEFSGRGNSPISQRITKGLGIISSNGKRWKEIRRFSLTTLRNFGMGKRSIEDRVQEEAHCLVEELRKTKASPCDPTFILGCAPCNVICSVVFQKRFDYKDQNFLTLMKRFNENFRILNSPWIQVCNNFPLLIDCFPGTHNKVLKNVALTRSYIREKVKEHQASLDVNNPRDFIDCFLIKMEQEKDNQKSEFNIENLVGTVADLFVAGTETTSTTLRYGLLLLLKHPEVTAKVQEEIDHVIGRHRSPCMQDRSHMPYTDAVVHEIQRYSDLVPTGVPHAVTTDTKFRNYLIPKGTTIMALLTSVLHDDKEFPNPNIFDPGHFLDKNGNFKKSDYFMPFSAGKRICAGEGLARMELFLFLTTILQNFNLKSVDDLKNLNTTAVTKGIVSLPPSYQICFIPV
Summary of the method: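 Pooled human liver microsomes (0.1 mg/mL) in 50 mM potassium phosphate pH 7.4 with compound, started with 1 mM NADPH, 5 min at 37° C, duplicate.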

PR = biological target: T2, PR (Homo sapiens, UniProt P06401); assay: In Vitro PR Luciferase Reporter Assay (antagonist mode, CHO-K1-PR-MMTV-Luc reporter cells); assay type: cell-based; conditions: antagonist assay with 20 nM Progesterone, 18-24 hours, read-out: PR antagonism IC50
T2 construct: expressed in transfected cells; host or cells: CHO-K1
T2 sequence (P06401 1-933): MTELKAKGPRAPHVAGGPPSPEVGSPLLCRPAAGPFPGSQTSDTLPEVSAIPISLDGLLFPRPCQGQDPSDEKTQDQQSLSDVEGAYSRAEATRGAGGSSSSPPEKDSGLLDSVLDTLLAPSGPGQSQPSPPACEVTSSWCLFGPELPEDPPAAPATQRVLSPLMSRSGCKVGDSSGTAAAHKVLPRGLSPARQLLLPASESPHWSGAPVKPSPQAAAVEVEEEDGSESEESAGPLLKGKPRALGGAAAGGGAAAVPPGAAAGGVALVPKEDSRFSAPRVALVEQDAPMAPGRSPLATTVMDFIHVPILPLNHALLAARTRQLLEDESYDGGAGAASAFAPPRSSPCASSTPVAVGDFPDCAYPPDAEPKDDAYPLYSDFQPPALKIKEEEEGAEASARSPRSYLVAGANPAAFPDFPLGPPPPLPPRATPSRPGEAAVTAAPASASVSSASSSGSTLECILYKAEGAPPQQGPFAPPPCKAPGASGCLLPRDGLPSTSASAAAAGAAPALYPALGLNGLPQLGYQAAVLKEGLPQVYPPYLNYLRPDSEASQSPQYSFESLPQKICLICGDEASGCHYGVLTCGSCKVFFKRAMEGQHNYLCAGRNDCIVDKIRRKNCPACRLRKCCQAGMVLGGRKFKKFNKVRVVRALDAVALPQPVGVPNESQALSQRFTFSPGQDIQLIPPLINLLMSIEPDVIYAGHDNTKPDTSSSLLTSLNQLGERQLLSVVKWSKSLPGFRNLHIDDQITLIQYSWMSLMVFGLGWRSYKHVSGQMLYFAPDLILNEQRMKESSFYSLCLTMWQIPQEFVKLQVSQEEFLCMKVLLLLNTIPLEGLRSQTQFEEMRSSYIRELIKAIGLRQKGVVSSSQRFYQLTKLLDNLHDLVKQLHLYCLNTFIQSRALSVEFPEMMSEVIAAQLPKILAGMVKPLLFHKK
Description: Example C: In Vitro PR Luciferase Reporter Assay
Cell Line: CHO-KI-PR-MMTV-Luc reporter cells
Culture Media: DMEM (with phenol red)+1000FBS
Assay Media: DMEM (without phenol red)+1000CSS
Culture CHO-Kl-PR-MMTV-Luc reporter cells in 15 cm plates in Culture Media at conditions less than 90% confluence.
Prepared 200×DMSO 1:8 serial dilutions of control and test compounds in 96-well non-sterile V bottom plate in DMSO, 8 serial dilutions for each compound.
Prepared 5× Assay Media diluted compound serial dilutions in 96-well non-sterile V bottom plate: Add 97.5 μL/well of Assay Media into 96-well then add 2.5 μl of 200× concentration of compounds and mix well.
Added compounds: 5 μl of assay media diluted compounds were added to appropriate wells and followed a quick spin (1000 rpm, 10 sec) to bring media and cells to the bottom of plate. The plates were covered with SealMate film to avoid evaporation and placed in 37° C. incubator for approximately 18-24 hours.
Read plates: Equilibrated appropriate amount of Promega One-Glo luciferase reagent to room temperature. Removed the plates from incubator and added 25 μL of One-Glo luciferase reagent/well by multiple channel pipette and read the plates with Tecan F500 luminometer within 3 minutes.
The ability of exemplary compounds disclosed herein to inhibit PR activity was quantified and the respective IC50 value was determined. Table 4 provides the cellular IC50 values of exemplary compounds disclosed herein.

inhibition at 5 min (CYP2C8)	IC50 (PR)	SMILES
≤ 25%	> 5 µM	O=C(c1ncc(C(F)(F)F)s1)[C@]12Cc3cnn(-c4ccc(F)cc4)c3C=C1CC[C@H](N(C1CC1)S(=O)(=O)c1ccc(F)cc1)C2 [Example 177, N-cyclopropyl-4-fluoro-N-((4aS,6S)-1-(4-fluorophenyl)-4a-(5-(trifluoromethyl)thiazole-2-carbonyl)-4,4a,5,6,7,8-hexahydro-1H-benzo[f]indazol-6-yl)benzenesulfonamide]
25 to 50%	> 5 µM	Cn1ccc(S(=O)(=O)N(CC2CC2)[C@H]2CCC3=Cc4c(cnn4-c4ccc(F)cc4)C[C@]3(C(=O)c3ncc(C(F)(F)F)s3)C2)n1 [Example 179, N-(cyclopropylmethyl)-N-((4aS,6S)-1-(4-fluorophenyl)-4a-(5-(trifluoromethyl)thiazole-2-carbonyl)-4,4a,5,6,7,8-hexahydro-1H-benzo[f]indazol-6-yl)-1-methyl-1H-pyrazole-3-sulfonamide]
50 to 75%	> 5 µM	CC(C)N([C@H]1CCC2=Cc3c(cnn3-c3ccc(F)cc3)C[C@]2(C(=O)c2cc(C(F)(F)F)ccn2)C1)S(=O)(=O)c1ccn(C)n1 [Example 186, N-((4aS,6S)-1-(4-fluorophenyl)-4a-(4-(trifluoromethyl)picolinoyl)-4,4a,5,6,7,8-hexahydro-1H-benzo[f]indazol-6-yl)-N-isopropyl-1-methyl-1H-pyrazole-3-sulfonamide]
25 to 50%	> 5 µM	CC(C)N(C(=O)c1cnn(C)c1)[C@H]1CCC2=Cc3c(cnn3-c3ccc(F)cc3)C[C@]2(C(=O)c2ncc(C(F)(F)F)s2)C1 [Example 211, N-((4aS,6S)-1-(4-fluorophenyl)-4a-(5-(trifluoromethyl)thiazole-2-carbonyl)-4,4a,5,6,7,8-hexahydro-1H-benzo[f]indazol-6-yl)-N-isopropyl-1-methyl-1H-pyrazole-4-carboxamide]
25 to 50%	> 5 µM	Cn1ccc(S(=O)(=O)N(C2CC(F)(F)C2)[C@H]2CCC3=Cc4c(cnn4-c4ccc(F)cc4)C[C@]3(C(=O)c3cc(C(F)(F)F)ccn3)C2)n1 [Example 227, N-(3,3-difluorocyclobutyl)-N-((4aS,6S)-1-(4-fluorophenyl)-4a-(4-(trifluoromethyl)picolinoyl)-4,4a,5,6,7,8-hexahydro-1H-benzo[f]indazol-6-yl)-1-methyl-1H-pyrazole-3-sulfonamide]
25 to 50%	> 5 µM	O=C(c1cc(Cl)ccn1)[C@]12Cc3cnn(-c4ccc(F)cc4)c3C=C1CC[C@H](N(C1CC1)S(=O)(=O)c1ccc(F)cc1)C2 [Example 232, N-((4aS,6S)-4a-(4-chloropicolinoyl)-1-(4-fluorophenyl)-4,4a,5,6,7,8-hexahydro-1H-benzo[f]indazol-6-yl)-N-cyclopropyl-4-fluorobenzenesulfonamide]
≤ 25%	> 5 µM	Cn1cc(S(=O)(=O)N(CC(C)(C)O)[C@H]2CCC3=Cc4c(cnn4-c4ccc(F)cc4)C[C@]3(C(=O)c3cc(F)ccn3)C2)cn1 [Example 248, N-((4aS,6S)-1-(4-fluorophenyl)-4a-(4-fluoropicolinoyl)-4,4a,5,6,7,8-hexahydro-1H-benzo[f]indazol-6-yl)-N-(2-hydroxy-2-methylpropyl)-1-methyl-1H-pyrazole-4-sulfonamide]

More lines, now with the values behind:

SMILES	inhibition at 5 min (CYP2C8)	IC50 (PR)
Cn1cc(S(=O)(=O)C[C@H]2CCC3=Cc4c(cnn4-c4ccc(F)cc4)C[C@]3(C(=O)c3cc(C(F)(F)F)ccn3)C2)cn1 (single isomer, unassigned) [Example 118]	≤ 25%	> 5 µM
CN([C@H]1CCC2=Cc3c(cnn3-c3ccc(F)cc3)C[C@]2(C(=O)c2cc(C(F)(F)F)ccn2)C1)S(=O)(=O)c1ccc(F)cc1 [Example 5, 4-Fluoro-N-((4aS,6S)-1-(4-fluorophenyl)-4a-(4-(trifluoromethyl)picolinoyl)-4,4a,5,6,7,8-hexahydro-1H-benzo[f]indazol-6-yl)-N-methylbenzenesulfonamide]	25 to 50%	> 5 µM
Cn1cc(S(=O)(=O)N(C2CC2)[C@H]2CCC3=Cc4c(cnn4-c4ccc(F)cc4)C[C@]3(C(=O)c3cc(C(F)(F)F)ccn3)C2)cn1 [Example 88, N-cyclopropyl-N-((4aS,6S)-1-(4-fluorophenyl)-4a-(4-(trifluoromethyl)picolinoyl)-4,4a,5,6,7,8-hexahydro-1H-benzo[f]indazol-6-yl)-1-methyl-1H-pyrazole-4-sulfonamide]	25 to 50%	> 5 µM
CN([C@H]1CCC2=Cc3c(cnn3-c3ccc(F)cc3)C[C@]2(C(=O)c2cc(C(F)(F)F)ccn2)C1)S(=O)(=O)c1ccn(C)n1 [Example 98, N-((4aS,6S)-1-(4-fluorophenyl)-4a-(4-(trifluoromethyl)picolinoyl)-4,4a,5,6,7,8-hexahydro-1H-benzo[f]indazol-6-yl)-N,1-dimethyl-1H-pyrazole-3-sulfonamide]	25 to 50%	3.47 µM
Cn1cc(S(=O)(=O)N(CC2CC2)[C@H]2CCC3=Cc4c(cnn4-c4ccc(F)cc4)C[C@]3(C(=O)c3cc(C(F)(F)F)ccn3)C2)cn1 [Example 103, N-(cyclopropylmethyl)-N-((4aS,6S)-1-(4-fluorophenyl)-4a-(4-(trifluoromethyl)picolinoyl)-4,4a,5,6,7,8-hexahydro-1H-benzo[f]indazol-6-yl)-1-methyl-1H-pyrazole-4-sulfonamide]	25 to 50%	> 5 µM
Cn1ccc(S(=O)(=O)N(CC(F)(F)F)[C@H]2CCC3=Cc4c(cnn4-c4ccc(F)cc4)C[C@]3(C(=O)c3cc(C(F)(F)F)ccn3)C2)n1 [Example 111, N-((4aS,6S)-1-(4-Fluorophenyl)-4a-(4-(trifluoromethyl)picolinoyl)-4,4a,5,6,7,8-hexahydro-1H-benzo[f]indazol-6-yl)-1-methyl-N-(2,2,2-trifluoroethyl)-1H-pyrazole-3-sulfonamide]	25 to 50%	> 5 µM
Cn1ccc(S(=O)(=O)[C@H]2CCC3=Cc4c(cnn4-c4ccc(F)cc4)C[C@]3(C(=O)c3cc(C(F)(F)F)ccn3)C2)n1 [Example 113, ((4aS,6S)-1-(4-Fluorophenyl)-6-((1-methyl-1H-pyrazol-3-yl)sulfonyl)-1,4,5,6,7,8-hexahydro-4aH-benzo[f]indazol-4a-yl)(4-(trifluoromethyl)pyridin-2-yl)methanone]	≤ 25%	> 5 µM
Cn1ccc(S(=O)(=O)N(C2CC2)[C@H]2CCC3=Cc4c(cnn4-c4ccc(F)cc4)C[C@]3(C(=O)c3cc(C(F)(F)F)ccn3)C2)n1 [Example 138, N-cyclopropyl-N-((4aS,6S)-1-(4-fluorophenyl)-4a-(4-(trifluoromethyl)picolinoyl)-4,4a,5,6,7,8-hexahydro-1H-benzo[f]indazol-6-yl)-1-methyl-1H-pyrazole-3-sulfonamide]	50 to 75%	> 5 µM
